This note sets out measurements from patent publication US11111220B2, “Propanamine derivatives for treating pain and pain related conditions” (ESTEVE PHARMACEUTICALS, S.A., priority 2017, dated 2021).

Where two headings read alike, the source gives them in different places.

Test [1] has as its target Human α2δ-1 Subunit of Cav2.2 Calcium Channel (Homo sapiens, UniProt P54289). Kind of test: Binding assay to human α2δ-1 subunit of Cav2.2 calcium channel ([3H]-Gabapentin). The following applies: human α2δ-1 enriched membranes, 15 nM [3H]-Gabapentin, read-out: Ki(nM) alpha2delta Hum. As to the method:
Binding Assay to Human α2δ-1 Subunit of Cav2.2 Calcium Channel.
Human α2δ-1 enriched membranes (2.5 μg) were incubated with 15 nM of radiolabeled [3H]-Gabapentin in assay buffer containing Hepes-KOH 10 mM, pH 7.4.
NSB (non specific binding) was measured by adding 10 μM pregabalin. The binding of the test compound was measured in five different concentrations. After 60 min incubation at 27° C., binding reaction was terminated by filtering through Multiscreen GF/C (Millipore) presoaked in 0.5% polyethyleneimine in Vacuum Manifold Station, followed by 3 washes with ice-cold filtration buffer containing 50 mM Tris-HCl, pH 7.4.
(§1) Filter plates were dried at 60° C. for 1 hour and 30 μl of scintillation cocktail were added to each well before radioactivity reading.
(§2) Readings were performed in a Trilux 1450 Microbeta radioactive counter (Perkin Elmer).

For test [2], the target named is Human Norepinephrine Transporter (NET) (Homo sapiens, UniProt P23975). Description: Binding assay to human norepinephrine transporter (NET) ([3H]-Nisoxetin). The following applies: Table 2 (dual compounds); human NET enriched membranes, 5 nM [3H]-Nisoxetin; read-out: Ki(nM) NET Hum. As to the method: Binding Assay to Human Norepinephrine Transporter (NET).
Human Norepinephrine Transporter (NET), sequence (P23975 whole entry): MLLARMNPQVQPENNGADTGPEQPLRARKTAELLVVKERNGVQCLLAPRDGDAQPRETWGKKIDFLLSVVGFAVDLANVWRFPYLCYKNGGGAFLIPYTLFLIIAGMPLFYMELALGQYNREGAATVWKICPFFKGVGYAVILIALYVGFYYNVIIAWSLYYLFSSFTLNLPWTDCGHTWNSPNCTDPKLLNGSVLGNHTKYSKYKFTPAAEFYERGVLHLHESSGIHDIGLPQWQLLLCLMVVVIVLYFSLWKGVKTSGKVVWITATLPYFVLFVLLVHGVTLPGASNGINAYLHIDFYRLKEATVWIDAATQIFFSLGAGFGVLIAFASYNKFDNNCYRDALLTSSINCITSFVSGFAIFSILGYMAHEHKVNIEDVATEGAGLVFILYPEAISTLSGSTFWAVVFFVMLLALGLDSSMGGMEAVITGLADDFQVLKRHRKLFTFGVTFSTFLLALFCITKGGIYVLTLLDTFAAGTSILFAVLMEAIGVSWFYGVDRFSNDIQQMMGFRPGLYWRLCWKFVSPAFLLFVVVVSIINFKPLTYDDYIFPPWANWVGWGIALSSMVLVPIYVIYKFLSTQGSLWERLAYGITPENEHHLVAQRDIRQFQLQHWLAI
Human norepinephrine transporter (NET) enriched membranes (5 μg) were incubated with 5 nM of radiolabeled [3H]-Nisoxetin in assay buffer containing 50 mM Tris-HCl, 120 mM NaCl, 5 mM KCl, pH 7.4.
NSB (non specific binding) was measured by adding 10 μM desipramine. The binding of the test compound was measured in five different concentrations. After 60 min incubation at 4° C., binding reaction was terminated by filtering through Multiscreen GF/C (Millipore) presoaked in 0.5% polyethyleneimine in Vacuum Manifold Station, followed by 3 washes with ice-cold filtration buffer containing 50 mM Tris-HCl, 0.9% NaCl, pH 7.4.
as §1, §2

Human α2δ-1 Subunit of Cav2.2 Calcium Channel, sequence (P54289 25-1103): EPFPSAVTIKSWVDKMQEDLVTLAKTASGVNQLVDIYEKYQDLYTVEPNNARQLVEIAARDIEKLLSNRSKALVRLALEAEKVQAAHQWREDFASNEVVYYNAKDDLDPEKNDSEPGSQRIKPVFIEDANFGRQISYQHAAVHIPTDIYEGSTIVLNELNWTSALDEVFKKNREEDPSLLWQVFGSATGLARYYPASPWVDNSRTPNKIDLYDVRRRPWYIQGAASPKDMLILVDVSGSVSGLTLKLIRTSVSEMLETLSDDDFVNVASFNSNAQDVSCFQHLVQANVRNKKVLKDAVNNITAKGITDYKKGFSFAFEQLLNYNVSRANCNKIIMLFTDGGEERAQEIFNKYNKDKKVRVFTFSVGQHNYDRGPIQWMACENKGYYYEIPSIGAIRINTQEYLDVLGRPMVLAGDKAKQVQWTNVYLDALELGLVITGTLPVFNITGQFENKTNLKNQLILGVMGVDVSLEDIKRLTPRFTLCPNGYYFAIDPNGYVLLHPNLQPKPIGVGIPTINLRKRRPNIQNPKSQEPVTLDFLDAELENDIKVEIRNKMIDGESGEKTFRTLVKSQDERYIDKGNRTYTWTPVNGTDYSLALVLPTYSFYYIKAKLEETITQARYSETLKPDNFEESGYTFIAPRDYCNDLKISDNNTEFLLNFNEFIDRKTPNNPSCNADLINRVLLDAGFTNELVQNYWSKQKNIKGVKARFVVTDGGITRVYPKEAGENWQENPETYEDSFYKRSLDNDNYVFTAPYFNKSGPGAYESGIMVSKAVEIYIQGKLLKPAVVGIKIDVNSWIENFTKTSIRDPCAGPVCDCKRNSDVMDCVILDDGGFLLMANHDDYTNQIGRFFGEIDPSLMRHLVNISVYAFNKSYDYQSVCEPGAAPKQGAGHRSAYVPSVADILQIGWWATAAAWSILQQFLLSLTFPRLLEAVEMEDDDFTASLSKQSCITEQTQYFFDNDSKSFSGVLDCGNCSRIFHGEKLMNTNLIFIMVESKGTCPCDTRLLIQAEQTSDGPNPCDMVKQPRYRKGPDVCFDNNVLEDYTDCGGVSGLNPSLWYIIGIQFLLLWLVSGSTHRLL

On to `CNCCC(Oc1ccc(CNCc2ccccc2)c(F)c1)c1cccs1` (stereo not drawn) [Example 71, 3-(4-((Benzylamino)methyl)-3-fluorophenoxy)-N-methyl-3-(thiophen-2-yl)propan-1-amine], for which the values for the Ki in test [1] (Table 1), in test [1] (Table 2 (dual compounds)) and in test [2] were at least 3000 nM, at least 3000 nM and below 100 nM, respectively.
